In one data set the target is hPin1 (Homo sapiens, UniProt Q13526). The data set can be described thus: protease-coupled PPIase assay, hPin1. Type of data set: biochemical. Particulars: 6 nM hPin1, substrate Ac-Ala-Ala-Ser(PO3H2)-Pro-Arg-pNA, trypsin, pH 7.8, 6° C.; read-out: IC50 class, Target T-1 (hPin1).
The target in another data set is EcParvulin (Escherichia coli, UniProt P0A9L5). The data set can be described thus: protease-coupled PPIase assay, EcParvulin. It is filed as biochemical.
The target of another data set is T1, Papain (Carica papaya, UniProt P00784).
T1 sequence (P00784 134-345): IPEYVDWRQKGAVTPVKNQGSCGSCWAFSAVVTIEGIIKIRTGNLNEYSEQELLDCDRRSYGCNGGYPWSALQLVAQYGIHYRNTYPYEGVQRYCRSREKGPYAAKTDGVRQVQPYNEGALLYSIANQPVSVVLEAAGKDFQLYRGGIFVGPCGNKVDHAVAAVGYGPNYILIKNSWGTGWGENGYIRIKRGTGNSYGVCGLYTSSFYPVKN
The data set can be described thus: papain assay. Type of data set: biochemical. Particulars: 16 μg/ml papain, 2 mM Bz-DL-Arg-pNA, pH 6.5, 30° C., 30 min incubation; read-out: IC50 class, Target T-6 (Papain). A digest of the protocol: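 Enzyme pre-incubated 30 min with 1-100 μM compound at 30° C, then pNA substrate added; 4-nitroaniline release read at 390 nm. Trypsin: 0.1 μg/ml, 120 μM Ac-Ala-Ala-Ser(PO3H2)-Pro-Arg-pNA, HEPES pH 7.8; cathepsin B: 0.2 μg/ml, 2 mM Z-Arg-Arg-pNA, phosphate/EDTA/Brij 35 pH 5.8; papain: 16 μg/ml, 2 mM Bz-DL-Arg-pNA, phosphate/L-Cys/EDTA pH 6.5.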

A short description of data set [1]: WST-1 cytotoxicity assay, HL-60. Type of data set: cell-based. Particulars: human, HL-60 cells (acute myeloid leukemia); WST-1, 48 h incubation; read-out: EC50 class, cytotoxic effect, CL-1 (HL-60). The essentials: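 Human tumour cell lines in culture were exposed to compounds at 37° C for 48 h, then given WST-1. Viability was read as formazan absorbance at (450 vs. 620) nm.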
(Tetrazolium assays rely on reduction of a dye to a coloured formazan, in cell work by metabolically active cells.)

The test system of data set [2] is cyclin D1 in MCF-7 and HeLa cells. In words: Cyclin D1 down regulation (western blot marker analysis). It is filed as cell-based, human. The procedure:
MCF-7 (5×10^5 cells/well) and HeLa cells (1.5×10^5 cells/well) were seeded in 6-well plates and incubated at 37° C. over night. Compounds or DMSO (final solvent concentration 0.1%) were added to the cells and incubated for different times as indicated. Subsequently, cells were lysed in RIPA buffer for 30 min on ice and centrifuged for 20 min at 4° C. After addition of electrophoresis sample buffer (4×) and 50 mM DTT to the supernatant, samples were boiled for 4 min at 95° C. Samples (equivalent to 2×10^5 cells/well) were run on a 15% SDS gel followed by blotting onto PVDF membrane.
The membrane was blocked for 1 h in 10 mM Tris (pH 7.5), 100 mM NaCl, 0.1% Tween-20 and 5% non-fat dry milk (blocking buffer) and incubated for 1 h with mouse anti-hCyclin D1 monoclonal antibody (clone DCS-6, BD Biosciences) diluted to 1 μg/ml in blocking buffer. Blots were washed 3×10 min with 10 mM Tris (pH 7.5), 100 mM NaCl, 0.1% Tween-20 (washing buffer) and incubated with 0.7 μg/ml peroxidase-conjugated sheep anti-mouse IgG (Sigma) in blocking buffer for 1 h. After washing 3×10 min with washing buffer, the plot was developed with the ECL+ detection kit (Amersham Biosciences).
In general terms: In western blotting, separated proteins are transferred to a membrane and probed.

Here are results for one compound from US20110065760A1, “COMPOUNDS FOR THE INHIBITION OF ROTAMASES AND USE THEREOF” (Jerini AG, priority 2002, published 2011).

Some results are limits rather than exact numbers.

hPin1, sequence (Q13526 whole entry): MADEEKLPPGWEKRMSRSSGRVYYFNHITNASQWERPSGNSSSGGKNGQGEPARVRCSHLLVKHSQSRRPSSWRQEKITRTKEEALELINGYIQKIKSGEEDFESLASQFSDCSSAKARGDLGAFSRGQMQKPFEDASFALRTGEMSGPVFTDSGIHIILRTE
EcParvulin, sequence (P0A9L5 whole entry): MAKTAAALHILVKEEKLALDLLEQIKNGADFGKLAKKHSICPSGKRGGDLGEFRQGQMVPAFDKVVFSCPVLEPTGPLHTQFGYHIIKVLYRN

Turning to `Cc1c(Cl)cc(NC(=O)NC(C)(C)CC(C)(C)C)c(O)c1Cl` [Compound 102], the IC50 lay in the range of 1 to 10 µM on hPin1, 1 to 10 µM at EcParvulin and 50 to 100 µM on Papain. Moreover, the EC50 at 48 h in data set [1] is less than 10 µM. In addition, the “cyclin D1 down regulation” value in data set [2] was “particular relevance”.

For orientation: IC50 means the concentration needed to halve the response being measured. The EC50 is the concentration that produces a half-maximal response.
